From US5736629A, “Herbicide resistant rice” (priority 1997, dated 1998)

Tests used:
Format in all cases: in vivo
[1] = test system: progeny of the mutant rice plant (ATCC 97523); test: Subsequent greenhouse and field testing of progeny of the surviving plant; details: herbicides applied either pre-emergence or post-emergence
Source text: (Imazamox is sold by American Cyanamid under the trade name Raptor, and has as active ingredient (+)-5-methoxymethyl-2-(4-isopropyl-4-methyl-5-oxo-2-imidazolin-2-yl) nicotinic acid. Imazameth is sold by American Cyanamid under the trade name Cadre, and has as active ingredient (±)-2-[4,5-dihydro-4-methyl-4-(1-methyl-ethyl)-5-oxo-1H-imidazol-2-yl]- 5-methyl-3-pyridinecarboxylicacid;alternatechemicalname (±)-2-(4-isopropyl-4-methyl-5-oxo-2-imidazolin-2-yl)-5-methylnicotinic acid). Imazapyr is sold by American Cyanamid under the trade name Arsenal, and has active ingredient 2-[4,5-dihydro-4-methyl-4-(1-methylethyl)-5-oxo-1H-imidazol-2-yl]-3-pyridinecarboxylic acid) This line is resistant to herbicides applied either pre-emergence or post-emergence.

ATCC 75295 rice line = test: Field plot test with AHAS-inhibiting herbicides, ATCC 75295
Procedure: The resistance of these plants to several other AHAS-inhibiting herbicides was also tested. Nine-foot-long field plots were planted with seven rows of rice per plot. The test included nine check rice varieties, and the ATCC 75295 rice line. A shielded spray boom was used to apply herbicide, spraying six of the seven rows in each plot. The four herbicides used were Pursuit (imazethapyr: (±)-2-[4,5-dihydro-4-methyl-4-(1-methylethyl)-5-oxo-1H-imidazol-2-yl]-5-ethyl-3-pyridinecarboxylic acid); Scepter (imazaquin: 2-[4,5-dihydro-4-methyl-4-(1-methylethyl)-5-oxo-1H-imidazol-2-yl]-3-quinolinecarboxylic acid); Accent (nicosulfuron: 2-(((((4,6-dimethoxypyrimidin-2-yl)aminocarbonyl)) aminosulfonyl))-N,N-dimethyl-3-pyridinecarboxamide); and Beacon (primisulfuron: 3-[4,6-bis(difluoromethoxy)-pyrimidin-2-yl]-1-(2-methoxycarbonylphenylsulfonyl)urea). The herbicides were applied to two replicate plots for each herbicide when the rice was at the three-leaf stage of maturity. Two replicate plots of each check variety and of the resistant line were left unsprayed as controls. The Accent treatment used 0.67 ounce of product (0.50 ounce active ingredient) per acre, with 0.25% nonionic surfactant. The Pursuit treatment used four ounces of product (1.00 ounce active ingredient) per acre, with 0.25% nonionic surfactant. The Scepter treatment used one pint of product (3.00 ounces active ingredient) per acre, with 0.25% nonionic surfactant. The Beacon treatment used 0.76 ounce of product (0.57 ounce active ingredient) per acre, with 0.25% nonionic surfactant. […] A similar test with the same rice varieties and the ATCC 75295 line was conducted at the five-leaf stage of development (i.e., plants fifteen days older than in the test described above), using Accent and Pursuit at the rates given above. […] The ATCC 75295 line was resistant only when herbicide was applied post-emergence.

[2] = test system: mutagenised rice seedlings of ten rice varieties; test: Field screen of mutagenised rice seedlings, all other plants; details: 2X treatment: nicosulfuron 0.063 lb a.i. per acre, imazethapyr 0.125 lb a.i. per acre; 0.25% non-ionic surfactant; 3-4 leaf stage; about four weeks later
Source text: The second resistance mechanism resulted from inducing mutations in seeds of each of ten rice varieties. Mutations were induced by exposure either to gamma rays or to the chemical mutagen ethyl methanesulfonate (EMS). Ten-pound lots of seed of each variety were subjected to 25 k-rad of gamma irradiation from a Cobalt-60 source at the Nuclear Science Center, Louisiana State University, Baton Rouge, La. prior to planting. An additional ten pounds of seed of each variety was divided into three equal portions; and each portion was soaked for 16 hours in either 0.1%, 0.5%, or 1% EMS immediately prior to planting. Several hundred pounds of seed were harvested from plants grown from the seeds subjected to these mutagenic treatments.
The following spring the harvested seed was planted in strips in a field planting occupying a total of about three acres. At the 3-4 leaf stage of seedling development, herbicides were applied to screen for herbicide-resistant mutants. Half of the seedlings of each variety were sprayed with a 2X treatment of nicosulfuron, and half were sprayed with a 2X treatment of imazethapyr, in both cases by a tractor-mounted sprayer. Nicosulfuron was applied at the rate of 0.063 lb active ingredient (a.i.) per acre, and imazethapyr was applied at 0.125 lb a.i. per acre. Non-ionic surfactant (0.25%) was added to each spray solution. […]

[3] = subsequent tests (data not shown)
[4] = five-leaf stage (plants fifteen days older), same rates as in the three-leaf test
[5] = three-leaf stage, per acre a.i.: Accent 0.50 ounce, Pursuit 1.00 ounce, Scepter 3.00 ounces, Beacon 0.57 ounce, 0.25% nonionic surfactant

## Cc1cnc(C2=NC(C)(C(C)C)C(=O)N2)c(C(=O)O)c1 (racemic) [imazameth, (±)-2-[4,5-dihydro-4-methyl-4-(1-methyl-ethyl)-5-oxo-1H-imidazol-2-yl]-5-methyl-3-pyridinecarboxylicacid]
[1]
  Resistance of the rice line (in words): resistance
ATCC 75295 rice line; [3]
  Resistance of the rice line (in words): exhibited resistance

## COCc1cnc(C2=NC(C)(C(C)C)C(=O)N2)c(C(=O)O)c1 (single isomer, unassigned; (+)) [imazamox, (+)-5-methoxymethyl-2-(4-isopropyl-4-methyl-5-oxo-2-imidazolin-2-yl) nicotinic acid]
[1]
  Resistance of the rice line (in words): resistance

## CC(C)C1(C)N=C(c2ncccc2C(=O)O)NC1=O (stereo not shown) [imazapyr, 2-[4,5-dihydro-4-methyl-4-(1-methylethyl)-5-oxo-1H-imidazol-2-yl]-3-pyridinecarboxylic acid]
[1]
  Resistance of the rice line (in words): resistance
ATCC 75295 rice line; [3]
  Resistance of the rice line (in words): exhibited resistance

## CC(C)C1(C)N=C(c2nc3ccccc3cc2C(=O)O)NC1=O (stereo not shown) [imazaquin, 2-[4,5-dihydro-4-methyl-4-(1-methylethyl)-5-oxo-1H-imidazol-2-yl]-3-quinolinecarboxylic acid]
[1]
  Resistance of the rice line (in words): resistance
ATCC 75295 rice line; [4]
  Resistance of the rice line (in words): good resistance
ATCC 75295 rice line; [5]
  Resistance of the rice line (in words): good resistance

## COc1cc(OC)nc(NC(=O)NS(=O)(=O)c2ncccc2C(=O)N(C)C)n1 [nicosulfuron, 2-(((((4,6-dimethoxypyrimidin-2-yl)aminocarbonyl))aminosulfonyl))-N,N-dimethyl-3-pyridinecarboxamide]
[1]
  Resistance of the rice line (in words): resistance
[2]
  Symptoms of injury (in words): either severely injured or dead
ATCC 75295 rice line; [4]
  Resistance of the rice line (in words): excellent resistance
ATCC 75295 rice line; [5]
  Resistance of the rice line (in words): excellent resistance

## COC(=O)c1ccccc1S(=O)(=O)NC(=O)Nc1nc(OC(F)F)cc(OC(F)F)n1 [primisulfuron, 3-[4,6-bis(difluoromethoxy)-pyrimidin-2-yl]-1-(2-methoxycarbonylphenylsulfonyl)urea]
ATCC 75295 rice line; [5]
  Resistance of the rice line (in words): lower, but still significantly greater than that of the check rice varieties
